From PubChem BioAssay AID1963844 (Molecular Pharmacology Branch, DTP, NCI, 2024)

Test system: 422866-222-R5-J1-PDC complex spheroid viability
Test: Anticancer human tumor 422866-222-R5-J1-PDC patient-derived pancreatic adenocarcinoma cell line growth inhibition [POLQ]
Details: for IC50: curve of first compound; for viability, T/C: stronger effect = lower value
Method: Multicellular complex tumor spheroid response to Polymerase (POL) inhibitors (novobiocin, ART-558, RP6685) in combination with a variety of drugs and investigational agents in selected tumor cell lines
The POL inhibitors (novobiocin, ART-558, and RP6685) were evaluated both individually and in combination with standard of care and investigational anticancer small molecules within a complex spheroid model of solid tumors. . Complex spheroids include a stromal component modeled by human endothelial cells (HUVEC) and fibroblasts modeled by human mesenchymal stem cells (MSCs). The concentration ranges selected for each drug and investigational agent were based upon clinically achievable concentrations if the clinical Cmax of the agent was known.
Compounds. The drugs and investigational agents: novobiocin (NSC847541), ART-558 (NSC835418), RP-6685 (NSC848927), peposertib (NSC802822), ceralasertib (NSC780249), elimusertib (NSC800525), camonsertib (NSC841442), AZD-1390 (NSC803789), olaparib (NSC753686), talazoparib (NSC767125), rucaparib (NSC756644), sotorasib (NSC818433), MRTX-1133 (NSC836407), SN-38 (NSC673596), topotecan (NSC609699), epotoside (NSC141540), doxorubicin (NSC123127), gemcitabine (NSC613327), 5-fluorouracil (NSC19893), paclitaxel (NSC125973), vemurafenib (NSC761431), MSA-2 (NSC828583), SN-011 (NSC837082), adavosertib (NSC754352), prexasertib (NSC758257), carboplatin (NSC241240) and oxaliplatin (NSC266046), were obtained from the National Cancer Institute (NCI) Developmental Therapeutics Program Chemical Repository (21). The FDA-approved anticancer drug set is available from the Developmental Therapeutics Program at https://dtp.cancer.gov/organization/dscb/obtaining/. […] The stock solutions were prepared in dimethyl sulfoxide (DMSO, Sigma-Aldrich, St. Louis, MO, cat. D2650), except for the platinum compounds which were prepared in saline (Quality Biological, Gaithersburg, MD, cat. 114-055-101), at 800-fold the tested concentration and stored at -70 degrees C prior to their use. All drugs and investigational agents were tested over a range starting from a high concentration at or near the clinical Cmax and decreasing in half-log increments. If the clinical Cmax for an agent had not been determined, the highest concentration tested was 10 microM, except for SN-38, which was tested at a high concentration of 1 microM.
Cell Culture. All cells were maintained in an incubator at 37 degrees C and 5% CO2 with 95% humidity. The PDC lines were cultured according to standard operating procedures established by the NCI PDMR (https://pdmr.cancer.gov). Table 3 of the manuscript, lists the cell lines along with the number of the three cell types plated to form the mct-spheroids and media for tumor cell growth. After thawing, all PDC lines, except 997537-175-T-J1-PDC and 415267-285-R-J2-PDC, were cultured in Matrigel-coated flasks prepared with a working solution of 1X Ham's F-12 nutrient mix, without supplementation (Thermo Fisher Scientific, cat. 11765054), 100 U/mL penicillin-streptomycin (Thermo Fisher Scientific, cat. 15140122), and 2.5% Matrigel (Corning Inc., Corning, NY, cat. 354248) for the first three passages. The two PDC lines 997537-175-T-J1-PDC and 415267-285-R-J2-PDC were cultured on uncoated flasks. The 857933-349-R-J2-PDC line was cultured in 6C/Colon 1B media containing advanced DMEM/F-12 (Thermo Fisher Scientific, cat. 12634028), 10 mM HEPES (Thermo Fisher Scientific, cat. 15630080), 1X GlutaMAX supplement (Thermo Fisher Scientific, cat. 35050061), 0.1 mg/mL primocin (InvivoGen, San Diego, CA, cat. ant-pm-2), 10% defined fetal bovine serum, heat inactivated (HyClone Laboratories Inc., Logan, UT, cat. SH30070.03HI), 50% L-WRN conditioned media (ATCC, cat. CRL-3276), 1.25 mM N-Acetyl-L-cysteine (Sigma-Aldrich, cat. A9165), 10 mM nicotinamide (Sigma-Aldrich, cat. N0636), 1X B-27 supplement (Thermo Fisher Scientific, cat. 17504044), 1X N-2 supplement (Thermo Fisher Scientific, cat. […]

[1] = second compound 0.0316 µM, first compound 0.00316 µM
[2] = second compound 0.0316 µM, first compound 0.01 µM
[3] = second compound 0.0316 µM, first compound 0.0316 µM
[4] = second compound 0.0316 µM, first compound 0.1 µM
[5] = second compound 0.0316 µM, first compound 0.316 µM
[6] = second compound 0.0316 µM, first compound 1 µM
[7] = second compound 0.1 µM, first compound 0.00316 µM
[8] = second compound 0.1 µM, first compound 0.01 µM
[9] = second compound 0.1 µM, first compound 0.0316 µM
[10] = second compound 0.1 µM, first compound 0.1 µM
[11] = second compound 0.1 µM, first compound 0.316 µM
[12] = second compound 0.1 µM, first compound 1 µM
[13] = second compound 0.316 µM, first compound 0.00316 µM
[14] = second compound 0.316 µM, first compound 0.01 µM
[15] = second compound 0.316 µM, first compound 0.0316 µM
[16] = second compound 0.316 µM, first compound 0.1 µM
[17] = second compound 0.316 µM, first compound 0.316 µM
[18] = second compound 0.316 µM, first compound 1 µM
[19] = second compound 1 µM, first compound 0.00316 µM
[20] = second compound 1 µM, first compound 0.01 µM
[21] = second compound 1 µM, first compound 0.0316 µM
[22] = second compound 1 µM, first compound 0.1 µM
[23] = second compound 1 µM, first compound 0.316 µM
[24] = second compound 1 µM, first compound 1 µM
[25] = second compound 3.16 µM, first compound 0.00316 µM
[26] = second compound 3.16 µM, first compound 0.01 µM
[27] = second compound 3.16 µM, first compound 0.0316 µM
[28] = second compound 3.16 µM, first compound 0.1 µM
[29] = second compound 3.16 µM, first compound 0.316 µM
[30] = second compound 3.16 µM, first compound 1 µM
[31] = second compound 10 µM, first compound 0.00316 µM
[32] = second compound 10 µM, first compound 0.01 µM
[33] = second compound 10 µM, first compound 0.0316 µM
[34] = second compound 10 µM, first compound 0.1 µM
[35] = second compound 10 µM, first compound 0.316 µM
[36] = second compound 10 µM, first compound 1 µM
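Also: spheroids exposed to compounds for one week before readout.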
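For viability, T/C in this document: percent of DMSO vehicle wells luminescence so 100% = untreated viability.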

C=CCn1c(=O)c2cnc(Nc3ccc(N4CCN(C)CC4)cc3)nc2n1-c1cccc(C(C)(C)O)n1 + COC1C(OC(N)=O)C(O)C(Oc2ccc3c(O)c(NC(=O)c4ccc(O)c(CC=C(C)C)c4)c(=O)oc3c2C)OC1(C)C
IC50 (second compound 0.0316 µM): 418 nM | IC50 (second compound 0.1 µM): 304 nM | IC50 (second compound 0.316 µM): 493 nM | IC50 (second compound 1 µM): 471 nM | IC50 (second compound 3.16 µM): 538 nM | IC50 (second compound 10 µM): 356 nM | viability, T/C [1]: 91.1% | viability, T/C [2]: 106% | viability, T/C [3]: 96.3% | viability, T/C [4]: 93.2% | viability, T/C [5]: 54.3% | viability, T/C [6]: 36.6% | viability, T/C [7]: 98.8% | viability, T/C [8]: 105% | viability, T/C [9]: 86.2% | viability, T/C [10]: 79.4% | viability, T/C [11]: 46.5% | viability, T/C [12]: 34.5% | viability, T/C [13]: 97.4% | viability, T/C [14]: 101% | viability, T/C [15]: 103% | viability, T/C [16]: 84.4% | viability, T/C [17]: 59.1% | viability, T/C [18]: 36.6% | viability, T/C [19]: 94.8% | viability, T/C [20]: 105% | viability, T/C [21]: 93.8% | viability, T/C [22]: 89.5% | viability, T/C [23]: 58% | viability, T/C [24]: 34.6% | viability, T/C [25]: 96.7% | viability, T/C [26]: 100% | viability, T/C [27]: 91.5% | viability, T/C [28]: 79% | viability, T/C [29]: 59.1% | viability, T/C [30]: 39.7% | viability, T/C [31]: 95.7% | viability, T/C [32]: 84.3% | viability, T/C [33]: 98.2% | viability, T/C [34]: 79.9% | viability, T/C [35]: 51.9% | viability, T/C [36]: 38.9%

CCc1c2c(nc3ccc(O)cc13)-c1cc3c(c(=O)n1C2)COC(=O)[C@]3(O)CC + COC1C(OC(N)=O)C(O)C(Oc2ccc3c(O)c(NC(=O)c4ccc(O)c(CC=C(C)C)c4)c(=O)oc3c2C)OC1(C)C
IC50 (second compound 0.0316 µM): < 3.16 nM | IC50 (second compound 0.1 µM): < 3.16 nM | IC50 (second compound 0.316 µM): < 3.16 nM | IC50 (second compound 1 µM): < 3.16 nM | IC50 (second compound 3.16 µM): < 3.16 nM | IC50 (second compound 10 µM): < 3.16 nM | viability, T/C [1]: 44.1% | viability, T/C [2]: 34.4% | viability, T/C [3]: 33.4% | viability, T/C [4]: 30.8% | viability, T/C [5]: 28.7% | viability, T/C [6]: 19.7% | viability, T/C [7]: 41.3% | viability, T/C [8]: 34.8% | viability, T/C [9]: 32% | viability, T/C [10]: 30.6% | viability, T/C [11]: 34.6% | viability, T/C [12]: 18.6% | viability, T/C [13]: 41.1% | viability, T/C [14]: 35.9% | viability, T/C [15]: 30.9% | viability, T/C [16]: 29.6% | viability, T/C [17]: 32.9% | viability, T/C [18]: 16.7% | viability, T/C [19]: 41.8% | viability, T/C [20]: 30.9% | viability, T/C [21]: 30.5% | viability, T/C [22]: 33.8% | viability, T/C [23]: 32.6% | viability, T/C [24]: 19% | viability, T/C [25]: 41% | viability, T/C [26]: 34.8% | viability, T/C [27]: 36% | viability, T/C [28]: 32.7% | viability, T/C [29]: 34.3% | viability, T/C [30]: 22.5% | viability, T/C [31]: 39.4% | viability, T/C [32]: 34.2% | viability, T/C [33]: 31.6% | viability, T/C [34]: 32.1% | viability, T/C [35]: 31.1% | viability, T/C [36]: 19.9%
